Data on one substance can be found in patent US20110098442A1, “PEPTIDES AND PEPTIDE DERIVATIVES AS WELL AS PHARMACEUTICAL COMPOSITIONS CONTAINING THE SAME” (priority 2006, published 2011).

This assay concerns mouse-adapted Dengue virus (DEN-2, strain P23085). Description: Dengue virus infection in mice, mortality/survival. It is filed as in vivo, BALB/c mice. The conditions noted are these: 4.8 mg/kg/day intramuscular once a day for 5 days, starting on day 3 after infection, end of treatment period (day 10). As for the experimental part:
A further possibility for establishing the biological effect in vivo is the reduction or complete suppression of mortality because of an infection with haemolytic viruses or bacteria. For this purpose, mice are, as described in Example 8, for instance infected with a dose of Dengue viruses, wherein 50% of the animals die within a period of 5-20 days after infection. The inventive compounds bring about a reduction of this mortality at a dose ranging from 0.001 to 500 mg/kg body weight, preferably at a dose ranging from […] body weight.
The biological effect of the compound of Example 3 was established in a model of Dengue virus infection in mice. 5-week-old male BALB/c mice were divided into 2 groups. All animals were infected subcutaneously with a mouse-adapted Dengue virus (DEN-2, strain P23085 at a dose of 1-2 LD50. 15 mice received 0.1 ml of 0.8% saline as intramuscular injection (control). The treated animals received 4.8 mg/kg/day of the agent of Example 3 as an intramuscular injection (diluted in 0.1 ml of 0.8% saline) once a day for 5 days, starting on day 3 after the virus infection.
At the end of the treatment period (day 10) the survival rates were compared.

Groups on a side chain read outwards from the residue. No end group written: not given here.

As to “Gly-His-Arg-Pro-Leu-Asp-Lys-Lys-Arg-Glu-Glu-Ala-Pro-Ser-Leu-Arg-Pro-Ala-Pro-Pro-Pro-Ile-Ser-Gly-Gly-Gly-Tyr-Arg-Cys-(S-succinimido-PEG20K)-amide (GHRPLDKKREEAPSLRPAPPPISGGGYRC([succinimido-PEG 20 kDa])-NH2) [Example 3]”, under “infection dose 1-2 LD50”, the “Mortality (dead animals/animals in group)” value is reported as 0/10. Moreover, the “Mortality Percentage” value (p < 0.05 vs control) is listed as 0%.
